Results taken from ChEMBL document CHEMBL1201862, “PubChem BioAssay data set” (2004).
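48-hour exposure; five concentrations; linearly interpolated endpoints. GI50 = concentration required for 50% inhibition of growth.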 Calls of active or inactive are those of the source. No stated cut-off is given here; in the data, active = GI50 up to about 1.1 µM and inactive = higher.

What was measured:
Assay in all cases: NCI tumour cell line growth inhibition, 48 h
PC-3 = test system: PC-3
SNB-19 = test system: SNB-19
MDA-MB-435 = test system: MDA-MB-435
HCT-116 = test system: HCT-116
MDA-MB-231 = test system: MDA-MB-231
SR = test system: SR
CCRF-CEM = test system: CCRF-CEM
HCC 2998 = test system: HCC 2998
A498 = test system: A498
Hs-578T = test system: Hs-578T
NCI-H23 = test system: NCI-H23
U-251 = test system: U-251
RPMI-8226 = test system: RPMI-8226
HOP-62 = test system: HOP-62
LOX IMVI = test system: LOX IMVI
CAKI-1 = test system: CAKI-1
DU-145 = test system: DU-145
OVCAR-4 = test system: OVCAR-4
SF-539 = test system: SF-539
786-0 = test system: 786-0

Row | Compound | GI50 (PC-3) | GI50 (SNB-19) | GI50 (MDA-MB-435) | GI50 (HCT-116) | GI50 (MDA-MB-231) | GI50 (SR) | GI50 (CCRF-CEM) | GI50 (HCC 2998) | GI50 (A498) | GI50 (Hs-578T) | GI50 (NCI-H23) | GI50 (U-251) | GI50 (RPMI-8226) | GI50 (HOP-62) | GI50 (LOX IMVI) | GI50 (CAKI-1) | GI50 (DU-145) | GI50 (OVCAR-4) | GI50 (SF-539) | GI50 (786-0)
1 | O=C(O)c1ccc(NCc2nc3cc4ccccc4cc3[nH]2)cc1 | > 100 µM (inactive) | > 100 µM (inactive) | > 100 µM (inactive) | > 100 µM (inactive) | > 100 µM (inactive) | > 100 µM (inactive) | > 100 µM (inactive) | 87.9 µM (inactive) | > 100 µM (inactive) | > 100 µM (inactive) | > 100 µM (inactive) | > 100 µM (inactive) | > 100 µM (inactive) | > 100 µM (inactive) | > 100 µM (inactive) | > 100 µM (inactive) | > 100 µM (inactive) | > 90.4 µM (inactive) | > 100 µM (inactive) | > 100 µM (inactive)
2 | CN(C)Cc1cc(C(C)(C)C)ccc1-c1ccc(C(C)(C)C)cc1CN(C)C | 43.7 µM (inactive) | > 100 µM (inactive) | 84.3 µM (inactive) | > 100 µM (inactive) | > 100 µM (inactive) | > 100 µM (inactive) | 56.8 µM (inactive) | 10.2 µM (inactive) | 75.3 µM (inactive) | > 100 µM (inactive) | > 100 µM (inactive) | 77.8 µM (inactive) | 39.9 µM (inactive) | > 100 µM (inactive) | > 100 µM (inactive) | > 100 µM (inactive) | > 100 µM (inactive) | > 100 µM (inactive) | > 100 µM (inactive) | > 100 µM (inactive)
3 | ClCCCSSCCCCl | 24.3 µM (inactive) | > 100 µM (inactive) | 24.3 µM (inactive) | 25.7 µM (inactive) | 35.8 µM (inactive) | 8.36 µM (inactive) | 5.08 µM (inactive) | 36.1 µM (inactive) | 38.7 µM (inactive) | 17.8 µM (inactive) | 38.3 µM (inactive) | 42 µM (inactive) | 31 µM (inactive) | 38.7 µM (inactive) | 27.2 µM (inactive) | 32.2 µM (inactive) | 43.1 µM (inactive) | 42.7 µM (inactive) | 20.7 µM (inactive) | 30.2 µM (inactive)
4 | Oc1c2cccc1Cc1cccc3c1OCCOCCOCCOCCOc1c(cccc1Cc1cccc(c1O)C3)C2 | 17.1 µM (inactive) | > 100 µM (inactive) | > 100 µM (inactive) | 7.43 µM (inactive) | 89.7 µM (inactive) | 2.06 µM (inactive) | > 100 µM (inactive) | > 100 µM (inactive) | > 100 µM (inactive) | 18.4 µM (inactive) | > 100 µM (inactive) | > 100 µM (inactive) | > 100 µM (inactive) | > 100 µM (inactive) | > 100 µM (inactive) | > 100 µM (inactive) | > 100 µM (inactive) | > 100 µM (inactive) | 94.6 µM (inactive) | > 100 µM (inactive)
5 | COc1ccc(/C=N/c2c(O)ccc3ccccc23)cc1OC | > 100 µM (inactive) | > 100 µM (inactive) | 18.9 µM (inactive) | 97.9 µM (inactive) | 63.7 µM (inactive) | > 100 µM (inactive) | > 100 µM (inactive) | > 100 µM (inactive) | > 100 µM (inactive) | 4.36 µM (inactive) | 31.8 µM (inactive) | > 100 µM (inactive) | 19.2 µM (inactive) | 92 µM (inactive) | 46.8 µM (inactive) | 63.2 µM (inactive) | > 100 µM (inactive) | > 100 µM (inactive) | > 100 µM (inactive) | > 100 µM (inactive)
6 | C=C1C(=O)O[C@H]2C[C@@]3(C)[C@H](O)CCC(=C)[C@@H]3[C@@H](OC(C)=O)[C@H]12 | 16.5 µM (inactive) | 12.9 µM (inactive) | 15.5 µM (inactive) | 3.66 µM (inactive) | 16.1 µM (inactive) | 2.22 µM (inactive) | 1 µM (active) | 15.1 µM (inactive) | 17.8 µM (inactive) | 14.3 µM (inactive) | 10.7 µM (inactive) | 20.2 µM (inactive) | 5 µM (inactive) | 16.4 µM (inactive) | 5.43 µM (inactive) | 1.48 µM (inactive) | 10.9 µM (inactive) | 4.85 µM (inactive) | 0.409 µM (active) | 5.85 µM (inactive)
7 | CN1CCc2cc3c(c4c2C1C(O)c1ccccc1-4)OCO3 (stereo not given) | 5.37 µM (inactive) | 10.6 µM (inactive) | 6.12 µM (inactive) | 3.68 µM (inactive) | 6.05 µM (inactive) | 4.6 µM (inactive) | 2.41 µM (inactive) | 8.91 µM (inactive) | 3.27 µM (inactive) | 3.19 µM (inactive) | 12 µM (inactive) | 6.07 µM (inactive) | 7.01 µM (inactive) | 4.67 µM (inactive) | 4.25 µM (inactive) | 3.75 µM (inactive) | 9.73 µM (inactive) | 6.04 µM (inactive) | 4.72 µM (inactive) | 6.21 µM (inactive)
8 | C/C(=N\NC(=S)N1CCCC1)c1nc2cccnc2[nH]1 | 0.355 µM (active) | 0.37 µM (active) | 0.416 µM (active) | 0.163 µM (active) | 16.5 µM (inactive) | 0.202 µM (active) | 0.0638 µM (active) | 19.3 µM (inactive) | 0.869 µM (active) | 13.2 µM (inactive) | 0.679 µM (active) | 0.0962 µM (active) | 0.553 µM (active) | 0.356 µM (active) | 0.178 µM (active) | 0.37 µM (active) | 0.175 µM (active) | 0.302 µM (active) | 0.0863 µM (active) | 0.177 µM (active)
9 | CCOC(=O)c1sc2c(c1OC(=O)c1cccs1)c(=O)n(-c1ccccc1)c(=S)n2-c1ccccc1 | 12 µM (inactive) | 28.6 µM (inactive) | 11.5 µM (inactive) | 5.3 µM (inactive) | 14.9 µM (inactive) | 0.0151 µM (active) | 5.15 µM (inactive) | 16.6 µM (inactive) | 6.4 µM (inactive) | 23.7 µM (inactive) | 15.8 µM (inactive) | 12.2 µM (inactive) | 7.55 µM (inactive) | 21.1 µM (inactive) | 15.7 µM (inactive) | 33.1 µM (inactive) | 20.5 µM (inactive) | 11.7 µM (inactive) | 16.7 µM (inactive) | 10.6 µM (inactive)
10 | COc1ccc(/C=C(/C)[N+](=O)[O-])cc1 | 2.16 µM (inactive) | 5.86 µM (inactive) | 1.95 µM (inactive) | 1.75 µM (inactive) | 3.24 µM (inactive) | 0.419 µM (active) | 0.565 µM (active) | 1.77 µM (inactive) | 2.7 µM (inactive) | 9.02 µM (inactive) | 2.03 µM (inactive) | 1.62 µM (inactive) | 0.394 µM (active) | 1.86 µM (inactive) | 1.48 µM (inactive) | 2.32 µM (inactive) | 2.36 µM (inactive) | 3.09 µM (inactive) | 1.72 µM (inactive) | 1.26 µM (inactive)
11 | CC1=NN(C(=O)CC(=O)Nc2ccccc2C)C(=O)C1/N=N\c1ccc(S(=O)(=O)c2ccc(/N=N/C3C(=O)N(C(=O)CC(=O)Nc4ccccc4C)N=C3C)cc2)cc1 (stereo not given) | > 100 µM (inactive) | > 100 µM (inactive) | > 100 µM (inactive) | > 100 µM (inactive) | > 100 µM (inactive) | > 100 µM (inactive) | > 100 µM (inactive) | > 100 µM (inactive) | > 100 µM (inactive) | 85.9 µM (inactive) | > 100 µM (inactive) | 67.9 µM (inactive) | > 100 µM (inactive) | > 100 µM (inactive) | > 100 µM (inactive) | > 100 µM (inactive) | > 100 µM (inactive) | > 100 µM (inactive) | > 100 µM (inactive) | > 100 µM (inactive)
12 | CN(C)CCCN1CCC2(CCC(C(C)(C)C)CC2)CC1 | 2.52 µM (inactive) | 3.27 µM (inactive) | 0.47 µM (active) | 1.56 µM (inactive) | 1.91 µM (inactive) | 1.42 µM (inactive) | 1.58 µM (inactive) | 0.21 µM (active) | 2 µM (inactive) | 1.89 µM (inactive) | 7.48 µM (inactive) | 1.76 µM (inactive) | 1.25 µM (inactive) | 2.15 µM (inactive) | 1.42 µM (inactive) | 2.72 µM (inactive) | 6.71 µM (inactive) | 6.31 µM (inactive) | 1.88 µM (inactive) | 1.54 µM (inactive)
13 | COC(=O)C1Cc2ccc3c(c2C1=O)CCCC3 (stereo not given) | 26.2 µM (inactive) | > 100 µM (inactive) | > 100 µM (inactive) | 39.7 µM (inactive) | 83 µM (inactive) | 26.7 µM (inactive) | 39.2 µM (inactive) | > 100 µM (inactive) | > 100 µM (inactive) | > 100 µM (inactive) | 74.5 µM (inactive) | 61.9 µM (inactive) | 24.7 µM (inactive) | 89.7 µM (inactive) | 38.1 µM (inactive) | > 100 µM (inactive) | > 100 µM (inactive) | > 100 µM (inactive) | > 100 µM (inactive) | > 100 µM (inactive)
14 | O=[N+]([O-])c1ccc(/N=N\c2c(O)c(S(=O)(=O)O)cc3cc(S(=O)(=O)O)ccc23)cc1 | > 100 µM (inactive) | > 100 µM (inactive) | > 100 µM (inactive) | > 100 µM (inactive) | > 100 µM (inactive) | > 100 µM (inactive) | > 100 µM (inactive) | > 100 µM (inactive) | > 100 µM (inactive) | > 100 µM (inactive) | > 100 µM (inactive) | > 100 µM (inactive) | > 100 µM (inactive) | 88.5 µM (inactive) | > 100 µM (inactive) | > 100 µM (inactive) | > 100 µM (inactive) | > 100 µM (inactive) | > 100 µM (inactive) | > 100 µM (inactive)
